Assay results taken from US8575156B2, “Cyclic inhibitors of 11β-hydroxysteroid dehydrogenase 1” (Vitae Pharmaceuticals, Inc., priority 2007, dated 2013).
Where two headings read alike, the source gives them in different places.

Target: 11β-HSD1 (Homo sapiens, UniProt P28845)
Test: biochemical
Details: for IC50: IC50 Range, Biological Test Example 1, microsomes from CHO cells overexpressing human 11β-HSD1; for inhibition at 0.1 µM: read-out: Average % inhibition at 100 nM, Biological Test Example 1
[1] = read-out: Average % inhibition at 111.1 nM, Biological Test Example 1, 111.1 nM compound

Sequence of 11β-HSD1 (P28845 whole entry): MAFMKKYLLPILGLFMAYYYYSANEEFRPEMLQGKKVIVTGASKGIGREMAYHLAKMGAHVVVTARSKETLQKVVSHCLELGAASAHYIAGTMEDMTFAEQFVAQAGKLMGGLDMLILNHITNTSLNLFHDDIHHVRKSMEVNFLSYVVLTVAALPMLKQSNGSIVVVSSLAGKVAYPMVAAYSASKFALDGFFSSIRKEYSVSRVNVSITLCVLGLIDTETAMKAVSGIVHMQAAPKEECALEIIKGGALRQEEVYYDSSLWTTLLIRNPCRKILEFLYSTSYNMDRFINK

Row | SMILES | IC50 [µM] | inhibition at 0.1 µM (100 nM) [%] | inhibition at 0.1111 µM [1] [%] | inhibition at 0.1 µM (100 nM compound) [%] | inhibition at 0.1111 µM (read-out: Average % inhibition at 111.1 nM) [%]
1 | COc1ccc([C@H](C)N2CC[C@](C)(c3ccc(CO)cc3)OC2=O)cc1 (single isomer, unassigned) [EXAMPLE 429 Isomer 1] | < 0.1 | 77.9 | – | – | –
2 | C[C@@H](c1ccc(-c2ccccc2)cc1)N1CC[C@](CCCO)(c2ccccc2)OC1=O [EXAMPLE 490, (R)-3-((S)-1-(biphenyl-4-yl)ethyl)-6-(3-hydroxypropyl)-6-phenyl-1,3-oxazinan-2-one] | < 0.1 | 94.8 | – | – | –
3 | CCOC(=O)COc1cccc([C@H](C)N2CCC(C)(c3ccccc3)OC2=O)c1 (stereo partly drawn) [EXAMPLE 91, ethyl 2-(3-((1S)-1-(6-methyl-2-oxo-6-phenyl-1,3-oxazinan-3-yl)ethyl)phenoxy)acetate] | 0.1 to 1 | – | 39.8 | – | –
4 | C[C@@H](c1ccc(Br)cc1)N1CC[C@](CCN2CCC2)(c2ccc(F)cc2)OC1=O [EXAMPLE 374, (R)-6-(2-(azetidin-1-yl)ethyl)-3-((S)-1-(4-bromophenyl)ethyl)-6-(4-fluorophenyl)-1,3-oxazinan-2-one] | < 0.1 | 52.2 | – | – | –
5 | C[C@@H](c1ccc(-c2ccc(F)cc2)cc1)N1CC[C@](CCN2CCCC2)(c2ccc(F)cc2)OC1=O [EXAMPLE 464, (R)-3-((S)-1-(4′-fluorobiphenyl-4-yl)ethyl)-6-(4-fluorophenyl)-6-(2-(pyrrolidin-1-yl)ethyl)-1,3-oxazinan-2-one] | < 0.1 | 80.2 | – | – | –
6 | O=C1OC(CCCO)(c2ccc(F)cc2)CCN1Cc1ccccc1Br (stereo not drawn) [EXAMPLE 351, 3-(2-bromobenzyl)-6-(4-fluorophenyl)-6-(3-hydroxypropyl)-1,3-oxazinan-2-one] | < 0.1 | 83.1 | – | – | –
7 | CC1(c2ccccc2)CCN(c2nccc(-c3c(Cl)cccc3Cl)n2)C(=O)O1 (stereo not drawn) [EXAMPLE 60, 3-(4-(2,6-dichlorophenyl)pyrimidin-2-yl)-6-methyl-6-phenyl-1,3-oxazinan-2-one] | 0.1 to 1 | – | 51.3 | – | –
8 | C[C@@H](c1ccc(Br)cc1)N1CC[C@@](CCC(N)=O)(c2ccc(F)cc2F)OC1=O (single isomer, unassigned) [EXAMPLE 504 Isomer 1] | < 0.1 | 49.9 | – | – | –
9 | O=C1OC(CCO)(c2ccccc2F)CCN1c1cccc(-c2ccc(F)cc2Cl)n1 (stereo not drawn) [EXAMPLE 50, 3-(6-(2-chloro-4-fluorophenyl)pyridin-2-yl)-6-(2-fluorophenyl)-6-(2-hydroxyethyl)-1,3-oxazinan-2-one] | < 0.1 | – | 96.3 | – | –
10 | CC1(c2ccccc2)CCN(c2cccc(-c3cc(F)ccc3F)c2)C(=O)O1 (stereo not drawn) [EXAMPLE 26, 3-(2′,5′-difluorobiphenyl-3-yl)-6-methyl-6-phenyl-1,3-oxazinan-2-one] | < 0.1 | – | 87 | 88.2 | –
11 | C[C@@H](c1ccc(-c2ccc(F)cc2)cc1)N1CC[C@](CC(O)CO)(c2ccccc2)OC1=O (single isomer, unassigned) [EXAMPLE 168 Isomer 1] | < 0.1 | – | – | 97.2 | –
12 | C[C@@H](c1ccc(Br)cc1)N1CC[C@](CCC#N)(c2ccc(F)cc2)OC1=O [EXAMPLE 524, 3-((R)-3-((S)-1-(4-bromophenyl)ethyl)-6-(4-fluorophenyl)-2-oxo-1,3-oxazinan-6-yl)propanenitrile] | < 0.1 | 97.9 | – | – | –
13 | C[C@@H](c1ccc(Cl)c(F)c1)N1CC[C@](CCO)(c2ccc(F)cc2)OC1=O [EXAMPLE 533, (S)-3-((S)-1-(4-chloro-3-fluorophenyl)ethyl)-6-(4-fluorophenyl)-6-(2-hydroxyethyl)-1,3-oxazinan-2-one] | < 0.1 | 94.5 | – | – | –
14 | CC1CC(CCO)(c2ccc(F)cc2)OC(=O)N1[C@@H](C)c1ccc(Br)cc1 (single isomer, unassigned) [EXAMPLE 163 Isomer 1] | < 0.1 | – | 66.8 | – | –
15 | CC1(c2ccccc2)CCN(c2cccc(-c3cccc(NS(C)(=O)=O)c3)c2)C(=O)O1 (stereo not drawn) [EXAMPLE 29, N-(3′-(6-methyl-2-oxo-6-phenyl-1,3-oxazinan-3-yl)biphenyl-3-yl)methanesulfonamide] | 0.1 to 1 | – | 29.8 | – | –
16 | C[C@@H](c1ccccc1)N1CCC(C)(c2ccc(CN3CCOCC3)cc2)OC1=O (stereo partly drawn) [EXAMPLE 92, 6-methyl-6-(4-(morpholinomethyl)phenyl)-3-((S)-1-phenylethyl)-1,3-oxazinan-2-one] | 0.1 to 1 | – | 35 | – | –
17 | C[C@@H](c1ccc(Br)cc1)N1CC[C@](CCCNS(C)(=O)=O)(c2ccccc2)OC1=O [EXAMPLE 394, N-(3-((R)-3-((S)-1-(4-bromophenyl)ethyl)-2-oxo-6-phenyl-1,3-oxazinan-6-yl)propyl)methanesulfonamide] | < 0.1 | 99.1 | – | – | –
18 | C=CC[C@@]1(c2ccc(F)cc2)CCN([C@@H](C)c2ccc(Br)cc2)C(=O)O1 (single isomer, unassigned) [EXAMPLE 110 Isomer 1] | < 0.1 | – | – | 90.5 | –

Row | SMILES | IC50 [µM] | inhibition at 0.1 µM (100 nM) [%] | inhibition at 0.1111 µM [1] [%] | inhibition at 0.1 µM (100 nM compound) [%] | inhibition at 0.1111 µM (read-out: Average % inhibition at 111.1 nM) [%]
19 | C[C@@H](c1ccc(F)cc1)N1CC[C@](CCO)(c2ccc(F)cc2)OC1=O [EXAMPLE 406, (S)-6-(4-fluorophenyl)-3-((S)-1-(4-fluorophenyl)ethyl)-6-(2-hydroxyethyl)-1,3-oxazinan-2-one] | < 0.1 | 86.4 | – | – | –
20 | C[C@@H](c1ccc(-c2ccc(F)cc2)cc1)N1CC[C@](CCN2CC[C@H](F)C2)(c2ccc(F)cc2)OC1=O [EXAMPLE 465, (R)-3-((S)-1-(4′-fluorobiphenyl-4-yl)ethyl)-6-(4-fluorophenyl)-6-(2-((S)-3-fluoropyrrolidin-1-yl)ethyl)-1,3-oxazinan-2-one] | < 0.1 | 65 | – | – | –
21 | C=CC[C@]1(c2ccc(F)cc2)CCN([C@H](C)c2ccc(Cl)c(F)c2)C(=O)O1 (single isomer, unassigned) [EXAMPLE 497 Isomer 4] | < 0.1 | – | – | – | –
22 | CC(O)C[C@]1(c2ccc(F)cc2)CCN([C@@H](C)c2ccc(Cl)cc2)C(=O)O1 (single isomer, unassigned) [EXAMPLE 203 Isomer 1] | < 0.1 | – | – | 88.6 | –
23 | C[C@@H](c1ccc(Br)cc1)N1CC[C@](CCNS(C)(=O)=O)(c2ccccc2)OC1=O [EXAMPLE 507, N-(2-((S)-3-((S)-1-(4-bromophenyl)ethyl)-2-oxo-6-phenyl-1,3-oxazinan-6-yl)ethyl)methanesulfonamide] | < 0.1 | 96.1 | – | – | –
24 | CC(N)c1ccc(-c2ccc([C@H](C)N3CC[C@](CCCO)(c4ccccc4)OC3=O)cc2)s1 (stereo partly drawn) [EXAMPLE 251, (6R)-3-((1S)-1-(4-(5-(1-aminoethyl)thiophen-2-yl)phenyl)ethyl)-6-(3-hydroxypropyl)-6-phenyl-1,3-oxazinan-2-one] | < 0.1 | – | – | 90.9 | –
25 | Cc1nnc(C[C@]2(c3ccccc3)CCN([C@@H](C)c3ccc(Br)cc3)C(=O)O2)o1 [EXAMPLE 530, (S)-3-((S)-1-(4-bromophenyl)ethyl)-6-((5-methyl-1,3,4-oxadiazol-2-yl)methyl)-6-phenyl-1,3-oxazinan-2-one] | < 0.1 | 73.3 | – | – | –
26 | C[C@@H](c1cccc(O)c1)N1CCC(C)(c2ccccc2)OC1=O (stereo partly drawn) [EXAMPLE 89, 3-((S)-1-(3-hydroxyphenyl)ethyl)-6-methyl-6-phenyl-1,3-oxazinan-2-one] | < 0.1 | – | 71.4 | – | –
27 | Cc1ccc([C@H](C)N2CC[C@](CCCO)(c3ccc(F)cc3)OC2=O)cc1 [EXAMPLE 418, (R)-6-(4-fluorophenyl)-6-(3-hydroxypropyl)-3-((S)-1-p-tolylethyl)-1,3-oxazinan-2-one] | < 0.1 | 99.2 | – | – | –
28 | O=C1OC(CCCO)(c2ccc(F)cc2)CCN1Cc1c(F)cccc1F (stereo not drawn) [EXAMPLE 348, 3-(2,6-difluorobenzyl)-6-(4-fluorophenyl)-6-(3-hydroxypropyl)-1,3-oxazinan-2-one] | < 0.1 | 48.9 | – | – | –
29 | CC1(c2ccccc2)CCN(c2ccnc(-c3ccc(F)cc3)n2)C(=O)O1 (stereo not drawn) [EXAMPLE 55, 3-(2-(4-fluorophenyl)pyrimidin-4-yl)-6-methyl-6-phenyl-1,3-oxazinan-2-one] | 0.1 to 1 | – | – | – | 3.7
30 | C=CC[C@]1(c2ccc(F)cc2)CCN([C@@H](C)c2ccc(C(=O)OC)cc2)C(=O)O1 [EXAMPLE 124, Methyl 4-((S)-1-((R)-6-allyl-6-(4-fluorophenyl)-2-oxo-1,3-oxazinan-3-yl)ethyl)benzoate] | < 0.1 | – | 96.8 | 95.2 | –
31 | C=CCC1(c2ccc(F)cc2)CCN(Cc2ccccc2Br)C(=O)O1 (stereo not drawn) [EXAMPLE 350, 6-allyl-3-(2-bromobenzyl)-6-(4-fluorophenyl)-1,3-oxazinan-2-one] | < 0.1 | 91.8 | – | – | –
32 | C[C@@H](c1ccc(Br)cc1)N1CC[C@](CCO)(c2ccccc2)OC1=O [EXAMPLE 396, (S)-3-((S)-1-(4-bromophenyl)ethyl)-6-(2-hydroxyethyl)-6-phenyl-1,3-oxazinan-2-one] | < 0.1 | – | – | – | –
33 | CC(O)C[C@]1(c2ccc(F)cc2)CCN([C@@H](C)c2ccc(C(F)(F)F)cc2)C(=O)O1 (single isomer, unassigned) [EXAMPLE 388 Isomer 1] | < 0.1 | 92.8 | – | – | –
34 | C=CC[C@]1(c2ccc(F)cc2)CCN([C@@H](C)c2ccc(C3CC3)cc2)C(=O)O1 [EXAMPLE 123, (R)-6-allyl-3-((S)-1-(4-cyclopropylphenyl)ethyl)-6-(4-fluorophenyl)-1,3-oxazinan-2-one] | < 0.1 | – | 97.6 | – | –
35 | C=CCC1(c2cccs2)CCN([C@@H](C)c2ccc(-c3ccc(F)cc3)cc2)C(=O)O1 (single isomer, unassigned) [EXAMPLE 160 Isomer 1] | < 0.1 | – | 93.5 | – | –
36 | C[C@@H](C1CCCCC1)N1CC[C@](CCNS(C)(=O)=O)(c2ccc(F)cc2)OC1=O [EXAMPLE 318, N-(2-((S)-3-((S)-1-cyclohexylethyl)-6-(4-fluorophenyl)-2-oxo-1,3-oxazinan-6-yl)ethyl)methanesulfonamide] | < 0.1 | 83.8 | – | – | –
